Measurements as given in article PMC3586729 (Nature Communications, 2013).

Molecular target: T1, F. pringlei R884G mutant C3 PEPC (Flaveria pringlei, UniProt Q01647, R885G)
T1 sequence (Q01647 1-967 R885G): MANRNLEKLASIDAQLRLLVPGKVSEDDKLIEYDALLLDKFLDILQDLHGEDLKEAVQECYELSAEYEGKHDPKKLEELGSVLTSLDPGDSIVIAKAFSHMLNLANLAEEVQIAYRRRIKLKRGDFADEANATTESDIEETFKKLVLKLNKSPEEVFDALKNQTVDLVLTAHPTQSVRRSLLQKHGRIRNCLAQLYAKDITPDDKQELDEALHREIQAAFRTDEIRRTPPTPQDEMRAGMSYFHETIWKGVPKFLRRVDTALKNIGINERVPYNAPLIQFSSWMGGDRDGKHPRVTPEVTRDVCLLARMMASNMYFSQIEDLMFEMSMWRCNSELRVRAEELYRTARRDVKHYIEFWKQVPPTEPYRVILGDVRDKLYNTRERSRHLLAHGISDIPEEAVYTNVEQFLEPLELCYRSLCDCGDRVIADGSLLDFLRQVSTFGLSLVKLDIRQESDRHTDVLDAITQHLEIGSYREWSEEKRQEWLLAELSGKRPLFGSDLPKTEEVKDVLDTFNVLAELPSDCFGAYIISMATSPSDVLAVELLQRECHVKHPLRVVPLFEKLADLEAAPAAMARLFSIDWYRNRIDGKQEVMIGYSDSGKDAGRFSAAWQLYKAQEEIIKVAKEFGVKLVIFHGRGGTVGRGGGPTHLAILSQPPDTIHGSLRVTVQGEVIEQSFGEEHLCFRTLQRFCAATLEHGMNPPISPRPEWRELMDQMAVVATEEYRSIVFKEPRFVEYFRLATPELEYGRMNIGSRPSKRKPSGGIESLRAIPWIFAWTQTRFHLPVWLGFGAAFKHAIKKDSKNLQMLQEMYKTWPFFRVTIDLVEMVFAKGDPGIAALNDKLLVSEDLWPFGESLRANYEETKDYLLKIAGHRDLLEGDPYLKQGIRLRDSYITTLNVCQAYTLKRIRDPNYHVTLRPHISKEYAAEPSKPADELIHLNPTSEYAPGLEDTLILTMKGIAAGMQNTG
Format: biochemical
Settings: C3 PEPC R884G versus wild-type C3 PEPC from F. pringlei

O=C(O)CC(O)C(=O)O (stereo not shown) [malate]
malate tolerance of the engineered enzyme increased by a factor: ~ 3
